Measured values reported in publication PMC7725824, “Fused isoselenazolium salts suppress breast cancer cell growth by dramatic increase in pyruvate-dependent mitochondrial ROS production” (Scientific Reports, 2020).
Read-outs that look alike come from different tables or passages of the source.

What was measured:
NIH 3T3 = test: Cytotoxicity assay (MTT), 3T3; type: cell-based, mouse; conditions: normal cell line, 48 h, mean ± S.D., 3 experiments
Experimental: (§1) MCF-7 (human breast adenocarcinoma, estrogen-positive) and 4T1 (mouse carcinoma), as breast cancer cell lines, and H9C2 (rat cardiomyoblasts), NIH 3T3 (mouse fibroblasts), HEKa (primary human epidermal keratinocytes), MDCK (Madin-Darby Canine Kidney) cells, and A7r5 (rat vascular smooth muscle cells), as normal cell lines, were obtained from the American Type Culture Collection [ATCC] collection for use in the current study. All cell lines were cultured in Dulbecco's modified Eagle's medium (DMEM) containing 10% fetal bovine serum (FBS) and 4 mM L-glutamine at 37 °C and 5% CO2.
(§2) Cell viability was assessed by the addition of 3-(4,5-dimethylthiazol-2-yl)-2,5-diphenyltetrazolinium bromide (MTT). Briefly, cells were seeded (2–6 × 10^4 cells/ml) in 96-well plates and allowed to attach for 24 h. Solutions of test compounds were prepared and serially diluted to obtain the appropriate concentrations. The cells were treated with the test compounds at different concentrations (0.032–100 µM) and incubated for 48 h at 37 °C and 5% CO2. Then, the culture medium was removed, and medium containing 0.2 mg/ml MTT was added. After 3 h (37 °C, 5% CO2), the MTT-containing medium was removed, and 200 μl of dimethyl sulfoxide (DMSO) was immediately added to each sample. The absorbance was assessed at 540 nm using a Tecan multiplate reader Infinite 1000 (Austria). The half-maximal inhibitory concentration (IC50) of each compound was calculated using Graph Pad Prism 3.0.

H9C2 = test: Cytotoxicity assay (MTT), H9C2; type: cell-based, rat; conditions: for IC50: normal cell line, MTT, 48 h, mean ± S.D., 3 experiments
Experimental: as §1, §2

HEKa = test: Cytotoxicity assay (MTT), HEKa; type: cell-based, human; conditions: normal cell line, 48 h, mean ± S.D., 3 experiments
Experimental: as §1, §2

4T1 = test: Cytotoxicity assay (MTT), 4T1; type: cell-based, mouse; conditions: read-out: Cytotoxicity, IC50, 4T1
Experimental: as §1, §2

MCF-7 = test: Cytotoxicity assay (MTT), MCF-7; type: cell-based, human; conditions: for IC50: read-out: Cytotoxicity, IC50, MCF-7
Experimental: as §1, §2

MDCK = test: Cytotoxicity assay (MTT), MDCK; type: cell-based, Canine; conditions: normal cell line, 48 h, mean ± S.D., 3 experiments
Experimental: as §1, §2

A7r5 = test: Cytotoxicity assay (MTT), A7r5; type: cell-based, rat; conditions: normal cell line, 48 h, mean ± S.D., 3 experiments
Experimental: as §1, §2

[1] = Cytotoxicity assay (MTT), 3T3; type: cell-based, mouse; conditions: mouse, normal cell line, mean ± S.D., 3 experiments
Experimental: as §1, §2

[2] = Cytotoxicity assay (MTT), H9C2; type: cell-based, rat; conditions: rat, normal cell line, MTT, 48 h, mean ± S.D., 3 experiments
Experimental: as §1, §2

[3] = Cytotoxicity assay (MTT), HEKa; type: cell-based, human; conditions: human, normal cell line, mean ± S.D., 3 experiments
Experimental: as §1, §2

[4] = Cytotoxicity assay (MTT), MDCK; type: cell-based, Canine; conditions: dog, normal cell line, mean ± S.D., 3 experiments
Experimental: as §1, §2

[5] = Cytotoxicity assay (MTT), A7r5; type: cell-based, rat; conditions: rat, normal cell line, mean ± S.D., 3 experiments
Experimental: as §1, §2

permeabilized 4T1 cells = test: High-resolution fluorespirometry (respiration and H2O2 flux); type: cell-based, mouse; conditions: 1 µM, pyruvate-dependent OXPHOS state
Experimental: High-resolution fluorespirometry was performed using an Oxygraph-2 k system (OROBOROS INSTRUMENTS, Austria). All experiments were performed at 37 °C in MiR05 medium (110 mM sucrose, 60 mM K-lactobionate, 0.5 mM EGTA, 3 mM MgCl2, 20 mM taurine, 10 mM KH2PO4, 20 mM HEPES, pH 7.1 at 30 °C, and 0.1% BSA essentially fatty acid free). The medium was reoxygenated when the oxygen concentration dropped to 80 µM. H2O2 flux was simultaneously measured with respirometry in the O2k-Fluorometer using the H2O2-sensitive probe Ampliflu Red (AmR) as described. The H2O2/O flux ratio [%] was calculated as the H2O2 flux/(0.5 O2 flux).
In permeabilized 4T1 cells, pyruvate + malate (5 and 2 mM) or glutamate + malate (10 and 2 mM) were used to determine complex I (CI)-linked LEAK (L) respiration. ADP was added to a concentration of 5 mM to determine the oxidative phosphorylation-dependent respiration (OXPHOS state). Succinate (10 mM, complex II (CII) substrate) was then added to reconstitute convergent CI&II-linked respiration. Rotenone (0.5 µM, an inhibitor of complex I) and antimycin A (2.5 µM, an inhibitor of complex III) were added to determine the CII-linked OXPHOS capacity and residual oxygen consumption (ROX), respectively. Compound 6 was added to permeabilized cells after the addition of the respective substrates in the OXPHOS state (titration experiment) or in the LEAK state. In addition, compounds 3, 6 and 7 were tested at 1 µM in the OXPHOS coupling protocol in the LEAK state. The OXPHOS coupling efficiency was calculated as: 1-Resp.rateLEAKstate/Resp.rateOXPHOSstate
The substrate-dependent flux control factor was calculated as: 1-Resp.ratebeforeadditionofrespectivesubstrate/Resp.rateafteradditionofrespectivesubstrate

MCF-7 cells [6] = test: NAD+/NADH assay kit measurement; type: cell-based, human; conditions: 2 μM, 10 min
Experimental: The NAD^+/NADH ratio in the MCF-7 cells exposed to the test compounds (2 μM) for 10 min was measured using an NAD^+/NADH assay kit (Abcam, ab65348) according to the manufacturer's instructions.

MCF-7 cells [7] = test: Fluorometric measurement of NMN level; type: cell-based, human; conditions: 2 μM, 10 min, vs control
Experimental: For fluorometric measurements of NMN, a previously described method was used, with minor modifications. […] The cells were washed with PBS and then lysed by adding 200 μl of 1 M HClO4 to each well and incubating at 4 °C for 20 min. The cells were harvested by scraping and transferred to a tube. The extracts were neutralized with 100 μl of 2 M KOH for 5 min at room temperature and 50 μl of 0.1 M bicine (pH 7.4) was added. The samples were centrifuged at 14 000 × g for 10 min at 4 °C, and the supernatant was collected for further analysis. The protein concentration in each sample was determined using a Bio-Rad protein assay kit. […] The reaction was incubated for 2 min at 4 °C, after which 45 μl of 88% formic acid was added, and the samples were incubated for another 10 min at 37 °C on a shaker. The fluorescence was measured using a Tecan multiplate reader Infinite 1000 (Austria) with excitation at 382 nm and emission at […].

[8] = breast cancer cell line, MTT, 48 h, mean ± S.D., 3 experiments
[9] = HEKa cells (primary epidermal keratinocytes)
[10] = Mus musculus, 4T1, breast cancer cell line, MTT, 48 h, mean ± S.D., 3 experiments
[11] = Homo sapiens, MCF7, breast cancer cell line, MTT, 48 h, mean ± S.D., 3 experiments
[12] = A7r5 cells (vascular smooth muscle cells)

“3-bromo-2-(2-hydroxy-2-methylethyl)-[1,2]selenazolo[2,3-a]pyridinium chloride [Compound 1]” showed an IC50 (NIH 3T3) of 0.13 ± 0.02 µM, an IC50 (H9C2) of 1800 ± 100 nM and an IC50 (HEKa) of 2.31 ± 0.02 µM. It also gave an IC50 (4T1; [8]) of 300 ± 30 nM, an IC50 (MCF-7; [8]) of 3100 ± 30 nM and an IC50 (MDCK) of 3.26 ± 0.4 µM. It also gave an IC50 (A7r5) of 2.89 ± 0.42 µM.
For `OC(c1ccccc1)(c1ccccc1)c1[se][n+]2ccccc2c1Br` [Compound 2, 3-bromo-2-(hydroxydiphenylmethyl)-[1,2]selenazolo[2,3-a]pyridin-8-ium], the IC50 at 48 h ([1]; NIH 3T3 cells (fibroblasts)) was 1600 ± 300 nM, the IC50 at 48 h ([2]; H9C2 cells (cardiomyoblasts)) was 4.2 ± 0.3 µM and the IC50 at 48 h [3, 9] was 2780 ± 80 nM. The IC50 (4T1; [10]) was 1100 ± 80 nM, the IC50 (MCF-7; [11]) was 390 ± 30 nM and the IC50 at 48 h ([4]; MDCK cells) was 6.27 ± 0.29 µM. For the same compound, the IC50 at 48 h [5, 12] was 1870 ± 260 nM.
Compound `Cc1cc[n+]2[se]c(C3(O)CCCCC3)c(Br)c2c1` [Compound 4, 3-bromo-2-(1-hydroxycyclohexyl)-5-methyl-[1,2]selenazolo[2,3-a]pyridin-8-ium] has an IC50 at 48 h ([1]; NIH 3T3 cells (fibroblasts)) of 790 ± 20 nM, an IC50 at 48 h ([2]; H9C2 cells (cardiomyoblasts)) of 2.9 ± 0.1 µM and an IC50 at 48 h [3, 9] of 2050 ± 50 nM. It also gave an IC50 (4T1; [10]) of 450 ± 20 nM, an IC50 (MCF-7; [11]) of 1480 ± 40 nM and an IC50 at 48 h ([4]; MDCK cells) of 2.54 ± 0.57 µM. For the same compound, the IC50 at 48 h [5, 12] was 1930 ± 160 nM.
`OC1(c2[se][n+]3ccccc3c2Br)CCCCCC1.[Br-]` [Compound 5, 3-Bromo-2-(1-hydroxycycloheptyl)-[1,2]selenazolo[2,3-a]pyridinium bromide] gave an IC50 at 48 h ([1]; NIH 3T3 cells (fibroblasts)) of 980 ± 30 nM, an IC50 at 48 h ([2]; H9C2 cells (cardiomyoblasts)) of 9.3 ± 0.2 µM and an IC50 at 48 h [3, 9] of 2010 ± 80 nM. For the same compound, the IC50 (4T1; [10]) was 410 ± 50 nM, the IC50 (MCF-7; [11]) was 290 ± 10 nM and the “increase of cytotoxicity against MCF-7 cells” value (MCF-7; cycloheptyl (5) versus cyclohexyl (4)) was “approximately 3 times”. It also gave an IC50 at 48 h ([4]; MDCK cells) of 1.51 ± 0.37 µM and an IC50 at 48 h [5, 12] of 1920 ± 440 nM.
For `Cn1cc[n+]2[se]c(C3(O)CCCCC3)c(Br)c12` [Compound 7, 3-bromo-N-methyl-2-(1-hydroxycyclohexyl)[1,2]selenazolo[2,3-b]imidazolium bromide], the “increase in H2O2/O ratio” value (permeabilized 4T1 cells) was “immediate significant increases”, the “increase in H2O2 production” value (permeabilized 4T1 cells) was “immediate significant increases” and the IC50 at 48 h [1] was 2200 ± 300 nM. It also gave an IC50 at 48 h [2] of 0.67 ± 0.02 µM, an IC50 at 48 h [3] of 2190 ± 90 nM and an IC50 (4T1; Mus musculus, 4T1, 48 h) of 940 ± 60 nM. For the same compound, the IC50 (MCF-7; Homo sapiens, MCF7, 48 h) was 1480 ± 20 nM, the “NAD+/NADH ratio higher than in untreated cells” value (MCF-7 cells [6]) was 1.65 times and the “decrease in NAD+ level” value (MCF-7 cells [6]; vs control) was “without affecting”. The “decrease in NADH level” value (MCF-7 cells [6]; vs control) was “induced a decrease”, the IC50 at 48 h [4] was 4.28 ± 0.34 µM and the IC50 at 48 h [5] was 1660 ± 250 nM. For the same compound, the “decrease in NMN levels” value (MCF-7 cells [7]) was “not”.
For `COc1cccc2c1C(=O)c1c(O)c3c(c(O)c1C2=O)C[C@@](O)(C(=O)CO)C[C@@H]3O[C@H]1C[C@H](N)[C@H](O)[C@H](C)O1` [Doxorubicin, reference compound], the IC50 at 48 h ([1]; NIH 3T3 cells (fibroblasts)) was 750 ± 90 nM, the “IC50 values in tumor cells versus cardiomyocytes, fold lower” value (H9C2; tumor cells versus cardiomyocytes) was 10–100 fold and the IC50 at 48 h ([2]; H9C2 cells (cardiomyoblasts)) was 11 ± 1 µM. The IC50 (4T1; [10]) was 160 ± 60 nM, the IC50 (MCF-7; [11]) was 1000 ± 300 nM and the IC50 at 48 h ([4]; MDCK cells) was 57 ± 6.1 µM. For the same compound, the IC50 at 48 h [5, 12] was 1820 ± 350 nM.
With `O=[Se](O)O` [Na2SeO3, Sodium selenite, reference compound] the IC50 (NIH 3T3) was 22.3 ± 3.6 µM, the IC50 (H9C2) was 1500 ± 300 nM and the IC50 (HEKa) was 13.3 ± 1.1 µM. It also gave an IC50 (4T1; [8]) of 4900 ± 600 nM, an IC50 (MCF-7; [8]) of 17100 ± 2400 nM and an IC50 (MDCK) of 6.3 ± 0.4 µM. The IC50 (A7r5) was 39.4 ± 8.2 µM.
